What all share (type): cell-based
One data set has as its target CXCR3 (Homo sapiens (Human), UniProt P49682). In words: Receptor internalization assay (RIA) in human whole blood. The note with it: final CXCL10 9 nM, CXCR3 surface expression on CD4 positive cells. How it is done:
Stock solutions of test compounds are made up at a concentration of 10 mM in DMSO, and serially diluted in PBS containing 0.5% BSA to concentrations required for inhibition dose response curves. Diluted compounds are then mixed with an equal volume of CXCL10 (Peprotech) diluted in PBS. Anticoagulated venous human whole blood is added to the mixture, which is then incubated in a CO2 incubator at 37° C. to allow for ligand mediated receptor internalization (final CXCL10 concentration is 9 nM). After 30 min, the blood is mixed with fluorescently labeled CXCR3 and CD4 specific antibodies (Becton Dickinson) and incubated on ice for 10 minutes. Samples are then mixed with BD FACS Lysing Solution (Becton Dickinson) in order to eliminate red blood cells. After washing the cells with PBS containing 0.5% BSA, the samples are then analyzed in a flow cytometer (FACS Canto II, Becton Dickinson). For data analysis using FACSDiva software (Becton Dickinson), the mean fluorescence corresponding to CXCR3 cell surface expression was determined on CD4 positive cells.
(§1) The calculated IC50 values may fluctuate depending on the daily assay performance. Fluctuations of this kind are known to those skilled in the art. In the case where IC50 values have been determined several times for the same compound, mean values are given. Data for the FLIPR assay are shown in Table 1 and for the receptor internalization assay (RIA) in Table 2.

For another data set, the target named is human CXCR3A (Homo sapiens (Human), UniProt P49682). Put plainly: FLIPR assay (calcium flux, CXCL10-induced). The note with it: CHO-K1 cells expressing human CXCR3A coupled to Galpha(16); CXCL10 agonist at 20 nM. The protocol: The bioactivity of compounds is tested in a fluorometric imaging plate reader (FLIPR: Molecular Devices) using engineered CHO-K1 cells expressing the human CXCR3A (GenBank: AY242128) coupled to a G protein (Galpha(16)). Cells are plated the day prior to bioassay in F12 medium supplemented with 10% FBS and G418 and hygromycin antibiotics to maintain recombinant selection. At the day of bioassay, cells are washed and dye loaded for one hour with Fluo-4-AM (Invitrogen) in Hanks Balanced Salt Solution (Invitrogen), buffered with 20 mM Hepes at pH 7.4 and sodium bicarbonate (0.038%), containing 5 mM probenecid. This buffer, but lacking the dye and containing probenecid at a concentration of 2.5 mM, is also used for washing steps (wash buffer); or lacking both dye and probenecid but supplemented with 0.1% BSA for compound dilution steps (dilution buffer). Cells are washed free of excess dye and 60 microliter of wash buffer is added. Stock solutions of test compounds are made up at a concentration of 10 mM in DMSO, and serially diluted in dilution buffer to concentrations required for inhibition dose response curves. After a 10 minute incubation period at 37° C., 10 microliters of each compound dilution are transferred from a compound plate to the plate containing the recombinant cells in the FLIPR instrument according to the manufacturer's instructions. Following basal readings, 10 microliter CXCL10 agonist at a concentration of 20 nM (from Peprotech) is added, again using the FLIPR instrument. Changes in fluorescence are monitored before and after addition of the test compounds. Emission peak values above base level after CXCL10 addition are exported after base line subtraction.
human CXCR3A, sequence (P49682 whole entry): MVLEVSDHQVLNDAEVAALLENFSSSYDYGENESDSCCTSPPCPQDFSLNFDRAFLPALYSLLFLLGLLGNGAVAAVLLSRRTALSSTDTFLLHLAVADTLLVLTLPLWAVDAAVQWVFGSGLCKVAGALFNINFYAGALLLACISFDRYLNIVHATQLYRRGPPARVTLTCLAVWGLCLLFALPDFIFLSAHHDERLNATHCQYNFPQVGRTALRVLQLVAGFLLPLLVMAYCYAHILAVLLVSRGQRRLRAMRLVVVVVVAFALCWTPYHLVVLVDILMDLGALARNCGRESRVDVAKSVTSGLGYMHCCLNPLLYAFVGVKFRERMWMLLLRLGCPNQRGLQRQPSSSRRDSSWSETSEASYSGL
as §1

A further data set concerns the target hERG K channel (Homo sapiens (Human), UniProt Q12809). In words: hERG Q-Patch assay. The note with it: CHO cells expressing hERG, K+ tail current. The protocol:
Compounds are evaluated for block of the hERG K channel using CHO cells stably expressing the hERG gene (accession number U04270, bSys, Witterswil, Switzerland) and the QPatch robotic platform (Sophion, Ballerup, Denmark) in single-cell mode at room temperature. Cells are grown in culture flasks at 37° C. in 5% CO2, in culture medium (Ham's F-12 Nutrient Mixture, Invitrogen 21765-029) supplemented with 9% (v/v) fetal calf serum, 0.9% Penicillin/Streptomycin (10,000 U/mL, Invitrogen 15140148), 100 μg/mL Hygromycin B (Invitrogen 10687010). When the cells are ˜80% confluent (every 2-3 days), they are either split for further culture or used for electrophysiology. For further culture, cells are detached with 0.25% Trypsin EDTA solution (Invitrogen 25200-056) and a fraction of the cells (10-30%) is reseeded in culture medium. For electrophysiology, on the experimental day, cells are detached with 0.25% Trypsin EDTA solution and all cells are suspended in suspension medium (293 SFM II, Invitrogen 11686-029) supplemented with 20 mM HEPES and 0.04 mg/mL Trypsin inhibitor. Cells are kept in suspension medium at 32-35° C. in the QPatch robot until use, at which time aliquots are transferred to the extracellular solution (in mM: NaCl 150; KCl 4; CaCl2 1.2; MgCl2 1; HEPES 10; pH 7.4 with NaOH) containing 0.3% v/v DMSO and applied to the test plates. K+ currents are measured with the patch-voltage-clamp technique in the whole-cell configuration with the internal solution (in mM: KCl, 140; NaCl, 10; MgCl2, 1; HEPES, 10; EGTA, 5; pH=7.2 with KOH). Currents are low-pass filtered using the internal Bessel filter of the QPatch robot with a cut-off frequency of 2 kHz and are digitized at 10 kHz. K^+ tail currents are produced from a holding voltage of −80 mV by a 500-ms depolarization to +20 mV followed by a 500-ms repolarization to −40 mV; tail current amplitudes are measured at the end of the repolarization to −40 mV. The pulse pattern is repeated every 10 sec during the experiment, baseline K^+ current is measured after 3 min in extracellular solution, test-solution containing compound is then applied, and K^+ current in presence of compound is measured 3 minutes after application to the cells. The respective test-solution is prepared by (1) dissolving the test-compound in pure DMSO, (2) diluting this DMSO solution in extracellular solution, and (3) adding further DMSO, such that the final test-solution has a concentration of either 300 nM or 3000 nM of the test-compound and contains 0.3% v/v DMSO. Compound effects are quantified as % block by dividing the current in presence of compound by the baseline current; two or three experiments are performed for each compound and the final value represents the mean of the results of each experiment.
On the technique in general: Block of hERG is tested as a sign of cardiac risk.

hERG K channel, sequence (Q12809 whole entry): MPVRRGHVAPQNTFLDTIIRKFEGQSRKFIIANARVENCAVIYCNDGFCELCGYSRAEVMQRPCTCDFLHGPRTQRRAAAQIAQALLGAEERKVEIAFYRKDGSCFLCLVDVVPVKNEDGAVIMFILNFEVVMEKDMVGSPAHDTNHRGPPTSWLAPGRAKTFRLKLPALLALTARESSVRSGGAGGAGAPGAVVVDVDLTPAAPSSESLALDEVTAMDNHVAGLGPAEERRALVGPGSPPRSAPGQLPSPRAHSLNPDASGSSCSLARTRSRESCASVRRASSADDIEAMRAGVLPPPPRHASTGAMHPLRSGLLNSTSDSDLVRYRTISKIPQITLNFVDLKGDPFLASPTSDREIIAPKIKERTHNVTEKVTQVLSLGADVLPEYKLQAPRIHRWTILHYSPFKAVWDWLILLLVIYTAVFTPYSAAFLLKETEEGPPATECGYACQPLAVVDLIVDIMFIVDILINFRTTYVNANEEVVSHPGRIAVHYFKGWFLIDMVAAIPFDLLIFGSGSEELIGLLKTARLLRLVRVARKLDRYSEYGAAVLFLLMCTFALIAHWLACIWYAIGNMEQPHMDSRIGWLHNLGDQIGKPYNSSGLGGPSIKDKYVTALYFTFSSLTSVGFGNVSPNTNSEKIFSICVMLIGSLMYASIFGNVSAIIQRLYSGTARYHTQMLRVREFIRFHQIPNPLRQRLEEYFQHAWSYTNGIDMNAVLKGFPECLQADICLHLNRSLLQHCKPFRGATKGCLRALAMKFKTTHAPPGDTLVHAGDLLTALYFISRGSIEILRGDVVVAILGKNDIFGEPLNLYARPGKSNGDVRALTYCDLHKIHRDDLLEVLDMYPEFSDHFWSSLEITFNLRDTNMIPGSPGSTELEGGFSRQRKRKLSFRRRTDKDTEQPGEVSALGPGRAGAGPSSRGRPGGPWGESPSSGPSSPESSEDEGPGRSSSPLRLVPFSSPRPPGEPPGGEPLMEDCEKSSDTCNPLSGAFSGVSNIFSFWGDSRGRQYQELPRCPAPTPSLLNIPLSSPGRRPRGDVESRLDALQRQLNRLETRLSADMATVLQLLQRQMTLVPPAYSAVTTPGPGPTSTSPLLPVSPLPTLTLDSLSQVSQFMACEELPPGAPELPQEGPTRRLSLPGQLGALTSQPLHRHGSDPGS
CXCR3, sequence (P49682 whole entry): as the sequence (P49682 whole entry) above

The IC50 is the concentration at which inhibition is half-maximal. In the case of `CCOc1ncc(-c2nc(C(F)(F)F)sc2N2CCN(C(=O)Cn3cnc(C)n3)[C@H](C)C2)cn1` [Example 19, 1-{(R)-4-[4-(2-Ethoxy-pyrimidin-5-yl)-2-trifluoromethyl-thiazol-5-yl]-2-methyl-piperazin-1-yl}-2-(3-methyl-[1,2,4]triazol-1-yl)-ethanone], the concentration for half-maximal inhibition (IC50) was determined as 211 nM against CXCR3 and 1.8 nM on human CXCR3A. Also, the “% block” value at hERG K channel (concentration 300 nM) was 9%; on hERG K channel (concentration 3000 nM), 14%.
The corresponding values for `C[C@@H]1CN(c2sc(C(F)(F)F)nc2-c2cnc(C(F)(F)F)nc2)CCN1C(=O)Cn1cnc(C(N)=O)n1` [Example 5, 1-(2-{(R)-2-Methyl-4-[2-trifluoromethyl-4-(2-trifluoromethyl-pyrimidin-5-yl)-thiazol-5-yl]-piperazin-1-yl}-2-oxo-ethyl)-1H-[1,2,4]triazole-3-carboxylic acid amide] are 1710 nM, 12 nM, 1% and 5%.
The corresponding values for `COCc1ncn(CC(=O)N2CCN(c3sc(C(F)(F)F)nc3-c3cnc(C(F)(F)F)nc3)C[C@H]2C)n1` [Example 9, 2-(3-Methoxymethyl-[1,2,4]triazol-1-yl)-1-{(R)-2-methyl-4-[2-trifluoromethyl-4-(2-trifluoromethyl-pyrimidin-5-yl)-thiazol-5-yl]-piperazin-1-yl}-ethanone] are 606 nM, 2.7 nM, 2% and 11%.
Taken in the same sequence, the figures for `Cc1ncn(CC(=O)N2CCN(c3sc(C(F)(F)F)nc3-c3cnc(C(F)(F)F)nc3)C[C@H]2C)n1` [Example 20, 2-(3-Methyl-[1,2,4]triazol-1-yl)-1-{(R)-2-methyl-4-[2-trifluoromethyl-4-(2-trifluoromethyl-pyrimidin-5-yl)-thiazol-5-yl]-piperazin-1-yl}-ethanone] were 189 nM, 1.6 nM, 2% and 18%.
As to `CCOc1ncc(-c2nc(C(F)(F)F)sc2N2CCN(C(=O)Cn3cnc(CC)n3)[C@H](C)C2)cn1` [Example 2, 1-{(R)-4-[4-(2-Ethoxy-pyrimidin-5-yl)-2-trifluoromethyl-thiazol-5-yl]-2-methyl-piperazin-1-yl}-2-(3-ethyl-[1,2,4]triazol-1-yl)-ethanone], the IC50 was 235 nM at CXCR3 and 1.6 nM on human CXCR3A. Besides, the results for the “% block” value at hERG K channel (concentration 300 nM) and at hERG K channel (concentration 3000 nM) were −2% and 4%, respectively.
In the case of `Cc1ncn(CC(=O)N2CCN(c3sc(C(F)(F)F)nc3-c3cnc(C4CC4)nc3)C[C@H]2C)n1` [Example 21, 1-{(R)-4-[4-(2-Cyclopropyl-pyrimidin-5-yl)-2-trifluoromethyl-thiazol-5-yl]-2-methyl-piperazin-1-yl}-2-(3-methyl-[1,2,4]triazol-1-yl)-ethanone], the IC50 against CXCR3 came out at 462 nM; at human CXCR3A, 5.2 nM. The “% block” value on hERG K channel (concentration 300 nM) was 3%; on hERG K channel (concentration 3000 nM), 17%.
Turning to `C[C@@H]1CN(c2sc(C(F)(F)F)nc2-c2cnc(C(F)(F)F)nc2)CCN1C(=O)Cn1cnc(CO)n1` [Example 10, 2-(3-Hydroxymethyl-[1,2,4]triazol-1-yl)-1-{(R)-2-methyl-4-[2-trifluoromethyl-4-(2-trifluoromethyl-pyrimidin-5-yl)-thiazol-5-yl]-piperazin-1-yl}-ethanone], the IC50 was 809 nM against CXCR3 and 5.2 nM on human CXCR3A. For the same molecule, the “% block” value at hERG K channel (concentration 300 nM) is recorded as 6%; on hERG K channel (concentration 3000 nM), 17%.
Taken in the same sequence, the figures for `CC(O)c1ncn(CC(=O)N2CCN(c3sc(C(F)(F)F)nc3-c3cnc(C(F)(F)F)nc3)C[C@H]2C)n1` (stereo partly drawn) [Example 12, 2-[3-(1-Hydroxy-ethyl)-[1,2,4]triazol-1-yl]-1-{(R)-2-methyl-4-[2-trifluoromethyl-4-(2-trifluoromethyl-pyrimidin-5-yl)-thiazol-5-yl]-piperazin-1-yl}-ethanone] were 564 nM, 0.9 nM, 0% and 4%.
Taken in the same sequence, the figures for `CC(C)c1ncn(CC(=O)N2CCN(c3sc(C(F)(F)F)nc3-c3cnc(C(F)(F)F)nc3)C[C@H]2C)n1` [Example 7, 2-(3-Isopropyl-[1,2,4]triazol-1-yl)-1-{(R)-2-methyl-4-[2-trifluoromethyl-4-(2-trifluoromethyl-pyrimidin-5-yl)-thiazol-5-yl]-piperazin-1-yl}-ethanone] were 174 nM, 1.3 nM, 5% and 24%.

These data come from patent US10047080B2, “(R)-2-methyl-piperazine derivatives as CXCR3 receptor modulators” (Idorsia Pharmaceuticals Ltd., priority 2015, dated 2018).
